Structures are written as SMILES.

The target in experiment [1] is Serine/threonine-protein kinase MARK2 (Homo sapiens) (UniProt Q7KZI7). Description: Inhibition of MARK2 Lys1 labeling site harbouring EVAVKIIDKTQLNSSSLQK in human Huh-7 cell lysate at 1 uM by KiNativ Profiling analysis relative to control. The experiment is classed as subcellular.
For experiment [2], the target named is T1, Serine/threonine-protein kinase TAO1 (Homo sapiens) (UniProt Q7L7X3).
T1 sequence (whole entry): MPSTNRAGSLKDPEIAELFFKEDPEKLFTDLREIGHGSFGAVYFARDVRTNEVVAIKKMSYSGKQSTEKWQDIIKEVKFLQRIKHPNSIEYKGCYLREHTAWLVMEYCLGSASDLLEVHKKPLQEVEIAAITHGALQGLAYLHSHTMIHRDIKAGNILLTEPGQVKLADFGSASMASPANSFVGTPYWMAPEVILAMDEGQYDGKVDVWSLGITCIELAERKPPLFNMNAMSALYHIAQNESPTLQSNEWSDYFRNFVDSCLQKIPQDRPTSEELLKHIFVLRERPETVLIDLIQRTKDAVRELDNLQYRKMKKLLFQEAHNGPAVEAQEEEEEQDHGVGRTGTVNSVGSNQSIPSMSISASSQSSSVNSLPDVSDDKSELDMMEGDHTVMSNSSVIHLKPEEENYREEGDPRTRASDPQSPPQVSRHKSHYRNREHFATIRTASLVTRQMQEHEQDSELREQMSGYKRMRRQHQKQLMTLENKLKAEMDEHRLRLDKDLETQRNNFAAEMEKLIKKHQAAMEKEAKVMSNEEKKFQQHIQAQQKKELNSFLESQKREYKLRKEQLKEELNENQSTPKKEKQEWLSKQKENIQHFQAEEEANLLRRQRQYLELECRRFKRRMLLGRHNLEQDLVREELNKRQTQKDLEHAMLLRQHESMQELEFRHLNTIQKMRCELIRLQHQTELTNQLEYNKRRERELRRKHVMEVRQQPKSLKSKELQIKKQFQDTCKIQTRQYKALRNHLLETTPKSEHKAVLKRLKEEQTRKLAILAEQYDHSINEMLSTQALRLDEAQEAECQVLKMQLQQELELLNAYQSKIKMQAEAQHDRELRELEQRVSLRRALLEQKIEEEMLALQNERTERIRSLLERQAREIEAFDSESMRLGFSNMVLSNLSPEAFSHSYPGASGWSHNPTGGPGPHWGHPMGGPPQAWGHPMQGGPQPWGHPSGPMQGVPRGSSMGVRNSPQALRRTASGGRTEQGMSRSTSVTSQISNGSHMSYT
The experiment in a line: Inhibition of TAO1 Lys2 labeling site in human Huh-7 cell lysate at 1 uM by KiNativ Profiling analysis relative to control. Type of experiment: subcellular.

Experiment [3] addresses Ribosomal protein S6 kinase beta-1 (Homo sapiens) (UniProt P23443). Description: Inhibition of S6K1 (unknown origin) at 1 uM by Ambit Kinomescan binding assay relative to control.
The target in experiment [4] is Serine/threonine-protein kinase 16 (Homo sapiens) (UniProt O75716). Description: Inhibition of MPSK1 Lys2 labeling site in human A-375 cells at 5 uM by KiNativ Profiling analysis relative to control. The experiment is classed as cell-based.
Sequence of Serine/threonine-protein kinase 16 (Homo sapiens) (O75716 whole entry): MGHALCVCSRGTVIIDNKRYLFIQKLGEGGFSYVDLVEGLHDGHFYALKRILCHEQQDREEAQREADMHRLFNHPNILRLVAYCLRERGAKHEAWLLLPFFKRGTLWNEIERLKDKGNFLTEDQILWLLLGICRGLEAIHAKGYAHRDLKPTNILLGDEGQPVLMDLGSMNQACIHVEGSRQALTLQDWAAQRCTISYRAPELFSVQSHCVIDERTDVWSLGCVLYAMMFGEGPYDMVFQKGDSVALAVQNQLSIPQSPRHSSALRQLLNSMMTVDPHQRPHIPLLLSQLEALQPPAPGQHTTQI
In experiment [5] the target is Dual specificity mitogen-activated protein kinase kinase 2 (Homo sapiens) (UniProt P36507). The experiment in a line: Inhibition of MAP2K2 Lys1 labeling site in human A-375 cells at 0.05 uM by KiNativ Profiling analysis relative to control. Type of experiment: cell-based.
Sequence of Dual specificity mitogen-activated protein kinase kinase 2 (Homo sapiens) (P36507 whole entry): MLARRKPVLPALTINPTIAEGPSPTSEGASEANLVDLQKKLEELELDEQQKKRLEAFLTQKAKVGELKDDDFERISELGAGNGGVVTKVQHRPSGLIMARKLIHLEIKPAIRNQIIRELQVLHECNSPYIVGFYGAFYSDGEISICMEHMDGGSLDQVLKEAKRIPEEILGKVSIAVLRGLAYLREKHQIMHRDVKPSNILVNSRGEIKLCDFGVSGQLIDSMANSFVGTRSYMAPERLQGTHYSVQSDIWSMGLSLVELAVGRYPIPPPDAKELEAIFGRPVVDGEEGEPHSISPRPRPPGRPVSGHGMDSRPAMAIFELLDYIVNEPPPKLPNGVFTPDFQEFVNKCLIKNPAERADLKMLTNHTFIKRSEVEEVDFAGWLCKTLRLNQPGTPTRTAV
Experiment [6] addresses T2, Mitogen-activated protein kinase kinase kinase 5 (Homo sapiens) (UniProt Q99683).
T2 sequence (whole entry): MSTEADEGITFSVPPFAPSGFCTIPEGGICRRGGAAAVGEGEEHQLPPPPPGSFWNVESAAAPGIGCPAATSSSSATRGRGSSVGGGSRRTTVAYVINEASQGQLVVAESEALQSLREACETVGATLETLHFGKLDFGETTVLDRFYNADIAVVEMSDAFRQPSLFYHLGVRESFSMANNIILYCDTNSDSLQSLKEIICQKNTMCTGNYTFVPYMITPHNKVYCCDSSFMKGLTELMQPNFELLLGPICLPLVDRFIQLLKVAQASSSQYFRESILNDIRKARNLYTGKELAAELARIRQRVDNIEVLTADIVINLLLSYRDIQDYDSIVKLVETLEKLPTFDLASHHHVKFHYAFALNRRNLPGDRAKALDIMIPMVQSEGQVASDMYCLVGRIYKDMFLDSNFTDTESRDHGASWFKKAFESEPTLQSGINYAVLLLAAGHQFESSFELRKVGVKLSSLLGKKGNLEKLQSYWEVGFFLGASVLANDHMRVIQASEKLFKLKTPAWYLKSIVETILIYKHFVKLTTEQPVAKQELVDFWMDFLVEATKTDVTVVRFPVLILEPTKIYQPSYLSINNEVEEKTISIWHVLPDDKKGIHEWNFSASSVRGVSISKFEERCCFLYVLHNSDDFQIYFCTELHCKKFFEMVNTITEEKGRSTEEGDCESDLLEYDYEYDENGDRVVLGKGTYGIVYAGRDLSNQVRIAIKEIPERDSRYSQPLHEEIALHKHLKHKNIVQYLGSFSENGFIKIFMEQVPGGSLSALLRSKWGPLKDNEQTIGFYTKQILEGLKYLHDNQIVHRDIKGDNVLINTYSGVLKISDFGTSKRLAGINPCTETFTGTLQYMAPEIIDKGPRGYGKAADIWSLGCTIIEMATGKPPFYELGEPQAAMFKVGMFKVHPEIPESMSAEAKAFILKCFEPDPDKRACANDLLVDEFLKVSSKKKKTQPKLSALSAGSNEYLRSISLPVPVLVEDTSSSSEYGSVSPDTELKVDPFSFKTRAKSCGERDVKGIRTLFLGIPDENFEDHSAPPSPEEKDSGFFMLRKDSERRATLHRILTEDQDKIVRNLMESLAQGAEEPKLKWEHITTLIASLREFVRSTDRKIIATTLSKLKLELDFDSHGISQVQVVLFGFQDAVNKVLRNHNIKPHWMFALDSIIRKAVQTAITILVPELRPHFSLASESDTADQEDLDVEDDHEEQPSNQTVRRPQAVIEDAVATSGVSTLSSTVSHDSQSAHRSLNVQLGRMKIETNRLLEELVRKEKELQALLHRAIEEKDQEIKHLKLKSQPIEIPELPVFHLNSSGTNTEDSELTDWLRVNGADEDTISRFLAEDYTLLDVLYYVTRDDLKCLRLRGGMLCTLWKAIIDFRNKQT
The experiment in a line: Inhibition of MAP3K5 Lys1 labeling site harbouring IAIKEIPER in human A-375 cells at 0.05 uM by KiNativ Profiling analysis relative to control. Type of experiment: cell-based.

Experiment [7] has as its target Fibroblast growth factor receptor 1 (Homo sapiens) (UniProt P11362). Description: Inhibition of FGFR1 (unknown origin) at 10 uM by Ambit Kinomescan binding assay relative to control; values are per cent of control.

Sequence of Ribosomal protein S6 kinase beta-1 (Homo sapiens) (P23443 whole entry, looked up): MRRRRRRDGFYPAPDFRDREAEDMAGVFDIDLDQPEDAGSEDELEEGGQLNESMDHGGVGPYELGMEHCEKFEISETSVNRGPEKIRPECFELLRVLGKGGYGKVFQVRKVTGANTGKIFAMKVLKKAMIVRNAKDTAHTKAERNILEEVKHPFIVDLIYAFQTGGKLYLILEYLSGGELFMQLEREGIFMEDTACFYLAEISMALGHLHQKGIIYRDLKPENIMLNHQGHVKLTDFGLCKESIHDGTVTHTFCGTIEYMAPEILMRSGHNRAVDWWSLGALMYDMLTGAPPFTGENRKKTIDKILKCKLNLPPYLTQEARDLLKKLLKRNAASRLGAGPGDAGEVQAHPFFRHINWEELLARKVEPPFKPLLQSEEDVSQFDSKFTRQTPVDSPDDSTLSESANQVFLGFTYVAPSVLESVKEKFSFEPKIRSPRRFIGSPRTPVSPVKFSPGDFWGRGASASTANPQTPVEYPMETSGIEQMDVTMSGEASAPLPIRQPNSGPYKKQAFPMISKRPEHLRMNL
Sequence of Serine/threonine-protein kinase MARK2 (Homo sapiens) (Q7KZI7 whole entry): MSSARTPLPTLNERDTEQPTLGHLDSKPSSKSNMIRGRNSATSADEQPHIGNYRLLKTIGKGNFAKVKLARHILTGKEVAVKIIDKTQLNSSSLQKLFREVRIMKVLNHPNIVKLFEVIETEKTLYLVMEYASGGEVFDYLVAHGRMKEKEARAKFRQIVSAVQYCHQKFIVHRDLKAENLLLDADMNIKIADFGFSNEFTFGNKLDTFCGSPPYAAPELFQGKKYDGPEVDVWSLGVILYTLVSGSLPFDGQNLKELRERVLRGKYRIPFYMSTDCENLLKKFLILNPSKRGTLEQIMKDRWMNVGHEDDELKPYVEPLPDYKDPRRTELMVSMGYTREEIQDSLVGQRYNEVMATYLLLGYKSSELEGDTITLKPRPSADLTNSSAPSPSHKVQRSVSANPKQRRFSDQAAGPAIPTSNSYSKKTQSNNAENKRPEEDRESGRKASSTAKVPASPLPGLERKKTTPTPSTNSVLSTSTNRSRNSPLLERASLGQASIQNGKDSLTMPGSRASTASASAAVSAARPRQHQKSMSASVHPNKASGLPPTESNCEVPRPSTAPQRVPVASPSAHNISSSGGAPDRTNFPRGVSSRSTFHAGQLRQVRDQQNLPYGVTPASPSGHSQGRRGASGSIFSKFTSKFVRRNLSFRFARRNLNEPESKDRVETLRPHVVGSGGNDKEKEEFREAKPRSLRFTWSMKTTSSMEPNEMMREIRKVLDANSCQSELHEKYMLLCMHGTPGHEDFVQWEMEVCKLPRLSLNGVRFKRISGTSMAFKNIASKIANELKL
Sequence of Fibroblast growth factor receptor 1 (Homo sapiens) (P11362 22-822 limits assumed): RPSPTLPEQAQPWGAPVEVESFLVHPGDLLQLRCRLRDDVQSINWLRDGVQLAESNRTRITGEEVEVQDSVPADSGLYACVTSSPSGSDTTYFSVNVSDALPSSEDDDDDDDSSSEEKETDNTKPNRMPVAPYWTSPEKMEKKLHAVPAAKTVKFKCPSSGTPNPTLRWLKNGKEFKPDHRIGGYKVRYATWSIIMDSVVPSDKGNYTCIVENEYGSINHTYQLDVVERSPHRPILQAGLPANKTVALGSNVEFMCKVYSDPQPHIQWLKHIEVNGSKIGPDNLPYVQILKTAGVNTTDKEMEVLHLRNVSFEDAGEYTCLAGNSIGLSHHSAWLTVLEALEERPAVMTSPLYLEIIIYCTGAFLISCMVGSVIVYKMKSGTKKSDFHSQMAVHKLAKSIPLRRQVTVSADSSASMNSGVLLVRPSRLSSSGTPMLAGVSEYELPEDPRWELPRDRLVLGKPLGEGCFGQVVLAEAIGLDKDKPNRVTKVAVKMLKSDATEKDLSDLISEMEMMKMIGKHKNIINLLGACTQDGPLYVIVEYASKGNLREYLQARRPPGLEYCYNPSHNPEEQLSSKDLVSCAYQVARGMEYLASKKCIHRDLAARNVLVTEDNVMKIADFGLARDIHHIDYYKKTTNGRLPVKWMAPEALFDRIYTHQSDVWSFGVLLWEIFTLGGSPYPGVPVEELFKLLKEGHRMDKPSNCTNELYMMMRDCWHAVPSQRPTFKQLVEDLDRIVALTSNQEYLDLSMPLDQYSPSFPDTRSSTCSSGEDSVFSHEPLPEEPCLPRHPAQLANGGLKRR

Turning to `CNc1cc(Oc2cc(C(=O)Nc3cc(N4CCN(C)CC4)cc(C(F)(F)F)c3)ccc2C)ncn1`, the inhibition in experiment [1] is 7.4%; in experiment [2], -1.2%.
Turning to `CCN1CCN(Cc2ccc(NC(=O)c3ccc(C)c(/C=C/c4cnc5[nH]ccc5c4OC)c3)cc2C(F)(F)F)CC1`, the inhibition was 46% in experiment [3] and 41% in experiment [4].
In the case of `CCN1CCN(Cc2ccc(NC(=O)c3ccc(C)c(Oc4ccnc5[nH]ccc45)c3)cc2C(F)(F)F)CC1`, the inhibition in experiment [5] was found to be 2.9%; in experiment [6], 10.8%. Also, in experiment [7], the % of control is 1.7%.

What is called inhibition is the drop in the measured response relative to a control, in per cent.

Source of the values: ChEMBL document CHEMBL5696442, “Discovery of type II inhibitors of TGFβ-activated kinase 1 (TAK1) and mitogen-activated protein kinase kinase kinase kinase 2 (MAP4K2)” (J Med Chem, 2015).
